Laboratory results reported in patent US11203591B2, “Substituted 6-azabenzimidazole compounds” (Gilead Sciences, Inc., priority 2018, dated 2021).
pIC50: −log10 of the molar value.

Biological target: human HPK1 (MAP4K1) (Homo sapiens (Human), UniProt Q92918)
Test: HPK1 IC50 Assay (TR-FRET peptide phosphorylation)
Assay type: biochemical
Summary of the method: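 Pre-activated, dually phosphorylated baculovirus-expressed HPK1 kinase domain (0.15 nM) preincubated 15 min with compound, then reacted 3 h at 25° C with 10 μM ATP and 1 μM STK S1 peptide in BES pH 7.0 buffer. Phosphopeptide read by TR-FRET (665/620 nm); four-parameter fit, geometric-mean IC50.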

[1] = recombinant HPK1 kinase domain 0.15 nM, 10 μM ATP, 1 μM STK S1 peptide, geometric mean of multiple experiments
[2] = 0.15 nM HPK1, 10 μM ATP, 1 μM STK S1 peptide substrate, geometric mean

Chain of human HPK1 (MAP4K1) (Q92918 17-274): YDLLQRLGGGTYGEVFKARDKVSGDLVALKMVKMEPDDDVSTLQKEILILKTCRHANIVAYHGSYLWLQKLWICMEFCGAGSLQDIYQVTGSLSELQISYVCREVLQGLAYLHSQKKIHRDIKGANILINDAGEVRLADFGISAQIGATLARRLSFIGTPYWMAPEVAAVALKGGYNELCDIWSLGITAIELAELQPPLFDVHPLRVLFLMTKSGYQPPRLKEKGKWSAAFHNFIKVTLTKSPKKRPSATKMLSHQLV

Row | Structure (SMILES) | pIC50 [1] | pIC50 [2]
1 | Cc1ccc(Nc2nc(-c3ccc4c(c3)N([C@H]3C[C@@H](NC(=O)C(C)(C)C)C3)C(=O)C4(C)C)cc3ncn(C(C)C)c23)cc1C(N)=O [Example 135, 5-((6-(3,3-dimethyl-2-oxo-1-((1s,3s)-3-pivalamidocyclobutyl)indolin-6-yl)-3-isopropyl-3H-imidazo[4,5-c]pyridin-4-yl)amino)-2-methylbenzamide] | 9.22 | –
2 | COCCNC(=O)c1cc(Nc2nc(-c3ccc4c(c3)N([C@H]3C[C@@H](N5CCCCC5)C3)C(=O)C4(C)C)cc3ncn(C(C)C)c23)c(F)cc1C [Example 116] | 9.70 | –
3 | CCNC(=O)c1cc(Nc2nc(-c3ccc4c(c3)N([C@H]3C[C@@H](N5CCCCC5)C3)C(=O)C43CCOCC3)cc3ncn(C(C)C)c23)ccc1C [Example 22] | 10.15 | –
4 | CC(C)NC(=O)c1cc(Nc2nc(-c3ccc4c(c3)N([C@H]3C[C@@H](N5CCCCC5)C3)C(=O)C4(C)C)cc3ncn(C(C)C)c23)ccc1Cl [Example 115] | 10.00 | –
5 | CNC(=O)c1cc(Nc2nc(-c3ccc4c(c3)N([C@H]3C[C@@H](N5CCCCC5)C3)C(=O)C4(C)C)cc3ncn(C(C)C)c23)c(F)cc1Cl [Example 118] | 10.05 | –
6 | CNC(=O)c1cc(Nc2nc(-c3ccc4c(c3)N([C@H]3C[C@@H](N5CCCCC5)C3)C(=O)C43CCN(C(C)=O)CC3)cc3ncn(C4CC4)c23)cc(C)c1C [Example 96] | 9.70 | –
7 | CNC(=O)c1cc(Nc2nc(-c3ccc4c(c3)N([C@H]3C[C@@H](N5CC[C@@H](F)C5)C3)C(=O)C4(C)C)cc3ncn(C(C)C)c23)ccc1C [Example 4] | 10.00 | –
8 | CCNC(=O)c1cc(Nc2nc(-c3ccc4c(c3)N([C@H]3C[C@@H](N5CCCCC5)C3)C(=O)C43CCN(C(=O)CC)CC3)cc3ncn(C(C)C)c23)c(F)cc1C [Example 60] | 9.70 | –
9 | CCC(=O)N1CCC2(CC1)C(=O)N([C@H]1C[C@@H](N3CCCCC3)C1)c1cc(-c3cc4ncn(C(C)C)c4c(Nc4cc(C(=O)NC(C)C)c(C)cc4F)n3)ccc12 [Example 53] | 10.10 | –
10 | Cc1ccc(Nc2nc(-c3ccc4c(c3)N([C@H]3C[C@@H](N5CCOC(C)(C)C5)C3)C(=O)C4(C)C)cc3ncn(C4CC4)c23)cc1C(N)=O [Example 16] | 10.00 | –
11 | CCNC(=O)c1cc(Nc2nc(-c3ccc4c(c3)N([C@H]3C[C@@H](N5CCCCC5)C3)C(=O)C43CCN(C4COC4)CC3)cc3ncn(C(C)C)c23)c(F)cc1C [Example 69] | 10.00 | –
12 | CC(=O)N1CCC2(CC1)C(=O)N([C@H]1C[C@@H](N3CCCCC3)C1)c1cc(-c3cc4ncn(C(C)C)c4c(Nc4cc(C(=O)NC(C)C)c(Cl)cc4F)n3)ccc12 [Example 89] | 9.70 | –
13 | CC(C)n1cnc2cc(-c3cnc4c(c3)N([C@H]3C[C@@](C)(N5CCCCC5)C3)C(=O)C4(C)C)nc(Nc3cc(C(=O)NC4(C(F)(F)F)CC4)c(Cl)c(F)c3F)c21 [Example 204, 2-Chloro-5-((6-(3,3-dimethyl-1-((1s,3s)-3-methyl-3-(piperidin-1-yl)cyclobutyl)-2-oxo-2,3-dihydro-1H-pyrrolo[3,2-b]pyridin-6-yl)-3-isopropyl-3H-imidazo[4,5-c]pyridin-4-yl)amino)-3,4-difluoro-N-(1-(trifluoromethyl)cyclopropyl)benzamide] | 9.70 | –
14 | CNC(=O)c1cc(Nc2nc(-c3ccc4c(c3)N(C3CC(N5CC[C@H](C(F)F)C5)C3)C(=O)C4(C)C)cc3ncn(C(C)C)c23)ccc1C (stereo partly shown) [Example 104A, 5-((6-(1-((1s,3s)-3-(3-(difluoromethyl)pyrrolidin-1-yl)cyclobutyl)-3,3-dimethyl-2-oxoindolin-6-yl)-3-isopropyl-3H-imidazo[4,5-c]pyridin-4-yl)amino)-N,2-dimethylbenzamide] | 9.70 | –
15 | Cc1ccc(Nc2nc(-c3ccc4c(c3)N([C@H]3C[C@@H](N5CCC[C@H](O)C5)C3)C(=O)C4(C)C)cc3ncn(C4CC4)c23)cc1C(N)=O [Example 36] | 10.00 | –
16 | CCc1ccc(Nc2nc(-c3ccc4c(c3)N([C@H]3C[C@@H](N5CCCCC5)C3)C(=O)C4(C)C)cc3ncn(C(C)C)c23)cc1C(=O)NC [Example 143] | 10.22 | –
17 | CNC(=O)c1cc(Nc2nc(-c3ccc4c(c3)N([C@H]3C[C@@H](N5C[C@H]6CC[C@@H]5C6)C3)C(=O)C43CCN(C(C)=O)CC3)cc3ncn(C4CC4)c23)ccc1C [Example 44] | 9.70 | –

Other lines, results leading:

Row | pIC50 [1] | pIC50 [2] | Structure (SMILES)
18 | – | 10.05 | CC(C)n1cnc2cc(-c3cc4c(nc3F)C(C)(C)C(=O)N4[C@H]3C[C@@](C)(N4CCCCC4)C3)nc(Nc3cc(C(=O)NCC(F)F)c(Cl)c(F)c3F)c21 [Example 272, 2-chloro-N-(2,2-difluoroethyl)-3,4-difluoro-5-((6-(5-fluoro-3,3-dimethyl-1-((1s,3s)-3-methyl-3-(piperidin-1-yl)cyclobutyl)-2-oxo-2,3-dihydro-1H-pyrrolo[3,2-b]pyridin-6-yl)-3-isopropyl-3H-imidazo[4,5-c]pyridin-4-yl)amino)benzamide]
19 | – | 10.00 | CCNC(=O)c1cc(Nc2nc(-c3cnc4c(c3)N([C@H]3C[C@@](C)(N5CCCC6(CC6)C5)C3)C(=O)C4(C)C)cc3ncn(C(C)C)c23)c(F)c(F)c1C [Example 285, 5-((6-(3,3-dimethyl-1-((1s,3s)-3-methyl-3-(5-azaspiro[2.5]octan-5-yl)cyclobutyl)-2-oxo-2,3-dihydro-1H-pyrrolo[3,2-b]pyridin-6-yl)-3-isopropyl-3H-imidazo[4,5-c]pyridin-4-yl)amino)-N-ethyl-3,4-difluoro-2-methylbenzamide]
20 | – | 10.15 | Cc1c(C(=O)NCC(F)F)cc(Nc2nc(-c3cc4c(nc3F)C(C)(C)C(=O)N4[C@H]3C[C@@](C)(N4CCCC5(CC5)C4)C3)cc3ncn(C(C)C)c23)c(F)c1F [Example 277, N-(2,2-difluoroethyl)-3,4-difluoro-5-((6-(5-fluoro-3,3-dimethyl-1-((1s,3s)-3-methyl-3-(5-azaspiro[2.5]octan-5-yl)cyclobutyl)-2-oxo-2,3-dihydro-1H-pyrrolo[3,2-b]pyridin-6-yl)-3-isopropyl-3H-imidazo[4,5-c]pyridin-4-yl)amino)-2-methylbenzamide]
21 | – | 10.40 | CC(C)n1cnc2cc(-c3cnc4c(c3)N([C@H]3C[C@@](C)(N5CCCCC5)C3)C(=O)C4(C)C)nc(Nc3cc(C(=O)NCC(F)F)c(F)c(F)c3F)c21 [Example 274, N-(2,2-difluoroethyl)-5-((6-(3,3-dimethyl-1-((1s,3s)-3-methyl-3-(piperidin-1-yl)cyclobutyl)-2-oxo-2,3-dihydro-1H-pyrrolo[3,2-b]pyridin-6-yl)-3-isopropyl-3H-imidazo[4,5-c]pyridin-4-yl)amino)-2,3,4-trifluorobenzamide]
22 | 10.00 | – | CNC(=O)c1cc(Nc2nc(-c3ccc4c(c3)N([C@H]3C[C@@H](N5CCCCC5)C3)C(=O)C43CCN(C(=O)C(C)(C)O)CC3)cc3ncn(C(C)C)c23)ccc1C [Example 146, 5-((6-(1′-(2-hydroxy-2-methylpropanoyl)-2-oxo-1-((1s,3s)-3-(piperidin-1-yl)cyclobutyl)spiro[indoline-3,4′-piperidin]-6-yl)-3-isopropyl-3H-imidazo[4,5-c]pyridin-4-yl)amino)-N,2-dimethylbenzamide]
23 | 10.22 | – | CNC(=O)c1cc(Nc2nc(-c3ccc4c(c3)N([C@H]3C[C@@H](N5CCCCC5)C3)C(=O)C43CCN(C(=O)C45CC(C4)C5)CC3)cc3ncn(C4CC4)c23)ccc1C [Example 156]
24 | 10.00 | – | CC(C)n1cnc2cc(-c3cnc4c(c3)N([C@H]3C[C@@](C)(N5CC6CCC6C5)C3)C(=O)C4(C)C)nc(Nc3cc(C(=O)NC4(C(F)F)CC4)c(Cl)c(F)c3F)c21 (stereo partly shown) [Example 205, 5-((6-(1-((1s,3s)-3-(3-Azabicyclo[3.2.0]heptan-3-yl)-3-methylcyclobutyl)-3,3-dimethyl-2-oxo-2,3-dihydro-1H-pyrrolo[3,2-b]pyridin-6-yl)-3-isopropyl-3H-imidazo[4,5-c]pyridin-4-yl)amino)-2-chloro-N-(1-(difluoromethyl)cyclopropyl)-3,4-difluorobenzamide]
25 | 10.00 | – | CC(C)n1cnc2cc(-c3cnc4c(c3)N([C@H]3C[C@@](C)(N5CCCCC5)C3)C(=O)C4(C)C)nc(Nc3cc(C(=O)NCC(F)F)c(Cl)c(F)c3F)c21 [Example 250, 2-chloro-N-(2,2-difluoroethyl)-5-((6-(3,3-dimethyl-1-((1s,3s)-3-methyl-3-(piperidin-1-yl)cyclobutyl)-2-oxo-2,3-dihydro-1H-pyrrolo[3,2-b]pyridin-6-yl)-3-isopropyl-3H-imidazo[4,5-c]pyridin-4-yl)amino)-3,4-difluorobenzamide]
26 | 10.22 | – | CC(C)n1cnc2cc(-c3cnc4c(c3)N([C@H]3C[C@@](C)(N5CCCCC5)C3)C(=O)C4(C)C)nc(Nc3cc(C(=O)NC4(C(F)F)CC4)ccc3F)c21 [Example 218, N-(1-(difluoromethyl)cyclopropyl)-3-((6-(3,3-dimethyl-1-((1s,3s)-3-methyl-3-(piperidin-1-yl)cyclobutyl)-2-oxo-2,3-dihydro-1H-pyrrolo[3,2-b]pyridin-6-yl)-3-isopropyl-3H-imidazo[4,5-c]pyridin-4-yl)amino)-4-fluorobenzamide]
27 | 10.00 | – | CC(C)n1cnc2cc(-c3cnc4c(c3)N([C@H]3C[C@@](C)(N5CCCCC5)C3)C(=O)C4(C)C)nc(Nc3cc(C(=O)NC4(C(F)F)CC4)c(Cl)cc3F)c21 [Example 202, 2-Chloro-N-(1-(difluoromethyl)cyclopropyl)-5-((6-(3,3-dimethyl-1-((1s,3s)-3-methyl-3-(piperidin-1-yl)cyclobutyl)-2-oxo-2,3-dihydro-1H-pyrrolo[3,2-b]pyridin-6-yl)-3-isopropyl-3H-imidazo[4,5-c]pyridin-4-yl)amino)-4-fluorobenzamide]
28 | – | 10.30 | CC(C)n1cnc2cc(-c3ccc4c(c3)N([C@H]3C[C@@](C)(N5CCCCC5)C3)C(=O)C4(C)C)nc(Nc3cc(C(=O)NC4(CF)CC4)c(Cl)cc3F)c21 [Example 293, 2-chloro-5-((6-(3,3-dimethyl-1-((1s,3s)-3-methyl-3-(piperidin-1-yl)cyclobutyl)-2-oxoindolin-6-yl)-3-isopropyl-3H-imidazo[4,5-c]pyridin-4-yl)amino)-4-fluoro-N-(1-(fluoromethyl)cyclopropyl)benzamide]
